Key:
[1] = In vitro cytotoxicity assay (MTT cell viability) in HepG2 cells; assay type: cell-based, human; settings: human
Outline: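 HepG2 seeded overnight, then 7-day compound exposure (30 μM–1.0 nM, half-log steps), 37 °C. MTT 3-4 h, DMSO solubilization, A492. % of vehicle → CC50, 4-PL fit.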

[2] = system: HBV replication in HepAD38 cells; assay: Anti-HBV replication assay in HepAD38 cells (QPCR of extracellular HBV DNA); assay type: cell-based, HBV (genotype D, serotype ayw); settings: Hepatitis B virus, 168 h, 7 days incubation, extracellular HBV DNA by QPCR, read-out: Anti-HBV EC50
Outline: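 Steps: seed HepAD38 overnight without tetracycline; refresh medium and add 1 log10 serial dilutions ([…]); incubate 7 days at 37 °C; quantify supernatant HBV DNA by QPCR; derive EC50 from a 4-parameter dose-response fit.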

Row | SMILES | CC50 at 7 days [1] [µM] | EC50 [2] [µM]
1 | Cc1cc(NC(=O)c2c(C)c(C(=O)C(=O)N[C@H]3CC[C@@H](C(=O)O)CC3)n(C)c2C)ccc1F [Example 279, (1s,4s)-4-(2-(4-((4-fluoro-3-methylphenyl)carbamoyl)-1,3,5-trimethyl-1H-pyrrol-2-yl)-2-oxoacetamido)cyclohexane-1-carboxylic acid] | > 30 | 0.05 to 0.499
2 | Cc1c(C(=O)Nc2ccc(F)c(Cl)c2)c2n(c1C(=O)C(=O)NC1(CO)CC(F)(F)C1)CCCC2 [Example 465, N-(3-chloro-4-fluorophenyl)-3-(2-((3,3-difluoro-1-(hydroxymethyl)cyclobutyl)amino)-2-oxoacetyl)-2-methyl-5,,6,7,8-tetrahydroindolizine-1-carboxamide] | 5 to 30 | < 0.05
3 | Cc1cc(NC(=O)c2c(C)c(C(=O)C(=O)NCCN)n(C)c2C)ccc1F [Example 257, 5-(2-((2-aminoethyl)amino)-2-oxoacetyl)-N-(4-fluoro-3-methylphenyl)-1,2,4-trimethyl-1H-pyrrole-3-carboxamide] | 5 to 30 | 0.05 to 0.499
4 | Cc1cc(NC(=O)c2c(C)c(C(=O)C(=O)NC(C)(C)CO)n(C)c2Cl)ccc1F [Example 391, 2-chloro-N-(44-fluoro-3-methylphenyl)-5-(2-((1-hydroxy-2-methylpropan-2-yl)amino)-2-oxoacetyl)-1 4-dimethyl-1H-pyrrole-3-carboxamide] | > 30 | > 1
5 | Cc1cc(NC(=O)c2c(C)c(C(=O)C(=O)NCC(C)(C)O)n(C)c2Cl)ccc1F [Example 388, 2-chloro-N-(4-fluoro-3-methylphenyl)-5-(2-((2-hydroxy-2-methylpropyl)amino)-2-oxoacetyl)-1,4-dimethyl-1H-pyrrole-3-carboxamide] | 5 to 30 | > 1
6 | Cc1cc(NC(=O)c2c(C)c(C(=O)C(=O)Nc3ccccn3)n(C)c2C)ccc1F [Example 276, N-(4-fluoro-3-methylphenyl)-1,2,4-trimethyl-5-(2-oxo-2-(pyridin-2-ylamino)acetyl)-1H-pyrrole-3-carboxamide] | > 30 | < 0.05
7 | O=C(N[C@H]1COC[C@@H]1O)C(=O)c1c(Cl)c(C(=O)Nc2ccc(F)c(F)c2)c2n1CCC2 [Example 570, 6-chloro-N-(3,4-difluorophenyl)-5-(22-(((3S,4R)-4-hydroxytetrahydrofuran-3-yl)amino)-2-oxoacetyl)-2,3-dihydro-1H-pyrrolizine-7-carboxamide] | > 30 | < 0.05
8 | Cc1c(C(=O)Nc2ccc(F)c(Cl)c2)c(C)n(C)c1C(=O)C(=O)Nc1cccnc1 [Example 311, N-(3-chloro-4-fluorophenyl)-1,2,4-trimethyl-5-(22-oxo-2-(pyridin-3-ylamino)acetyl)-1H-pyrrole-3-carboxamide] | > 30 | < 0.05
9 | Cc1cc(NC(=O)c2c(C)c(C(=O)C(=O)NC3CCSCC3)n(C)c2C)cnc1F [Example 191, N-(6-fluoro-5-methylpyridin-3-yl)-1,2,4-trimethyl-5-(2-oxo-2-((tetrahydro-2H-thiopyran-4-yl)amino)acetyl)-1H-pyrrole-3-carboxamide] | > 30 | < 0.05
10 | Cc1c(C(=O)Nc2ccc(F)c(Cl)c2)c(C)n(C)c1C(=O)C(=O)N[C@H]1CC[C@@H](O)CC1 [Example 251, N-(3-chloro-4-fluorophenyl)-5-(2-(((1s,4s)-4-hydroxycyclohexyl)amino)-2-oxoacetyl)-1,2,4-trimethyl-1H-pyrrole-3-carboxamide] | > 30 | < 0.05
11 | Cc1c(C(=O)Nc2ccc(F)c(F)c2)c(C)n(C)c1C(=O)C(=O)NC12CCC(O)(CC1)CC2 [Example 335, N-(3,4-difluorophenyl)-5-(2-((4-hydroxybicyclo[2.2.2]octan-1-yl)amino)-2-oxoacetyl)-1,2,4-trimethyl-1H-pyrrole-3-carboxamide] | > 30 | < 0.05
12 | Cc1cc(NC(=O)c2c(Cl)c(C(=O)C(=O)NC(C)(C)CO)n3c2CCC3)ccc1F [Example 540, 6-chloro-N-(4-fluoro-3-methylphenyl)-5-(2-((1-hydroxy-2-methylpropan-2-yl)amino)-2-oxoacetyl)-2,3-dihydro-1H-pyrrolizine-7-carboxamide] | > 30 | < 0.05
13 | Cc1c(C(=O)Nc2ccc(F)c(F)c2)c2n(c1C(=O)C(=O)N[C@H]1CCC[C@H]1O)CCCC2 [Example 458, N-(3,4-difluorophenyl)-3-(2-(((1S,2R)-2-hydroxycyclopentyl)amino)-2-oxoacetyl)-2-methyl-5,6,7,8-tetrahydroindolizine-1-carboxamide] | 5 to 30 | 0.5 to 1
14 | Cc1c(C(=O)Nc2ccc(F)c(Cl)c2)c(C)n(C)c1C(=O)C(=O)Nc1ccc(F)c(F)c1 [Example 313] | 5 to 30 | < 0.05
15 | Cc1c(C(=O)Nc2ccnc(F)c2)c(C)n(C)c1C(=O)C(=O)NC12CC3CC(CC1C3)C2 [Example 90, N-(2-fluoropyridin-4-yl)-5-(2-(((2R,3as,5S,6as)-hexahydro-2,5-methanopentalen-3a(1H)-yl)amino)-2-oxoacetyl)-1,2,4-trimethyl-1H-pyrrole-3-carboxamide] | 5 to 30 | < 0.05
16 | Cc1nc2c(s1)C(NC(=O)C(=O)c1c(C)c(C(=O)Nc3ccnc(F)c3)c(C)n1C)CCC2 (stereo not drawn) [Example 607, N-(2-fluoropyridin-4-yl)-1,2,4-trimethyl-5-(2-((2-methyl-4,5,6,7-tetrahydrobenzo[d]thiazol-7-yl)amino)-2-oxoacetyl)-1H-pyrrole-3-carboxamide] | > 30 | < 0.05
17 | Cc1cc(NC(=O)c2c(C)c(C(=O)C(=O)N3C4CCCC3CC(=O)C4)n(C)c2C)cnc1F [Example 193, N-(6-fluoro-5-methylpyridin-3-yl)-1,2,4-trimethyl-5-(2-oxo-2-(3-oxo-9-azabicyclo[3.3.1]nonan-9-yl)acetyl)-1H-pyrrole-3-carboxamide] | > 30 | > 1
18 | Cc1c(C(=O)Nc2ccc(F)c(F)c2)c(C)n(C)c1C(=O)C(=O)NC1(C(N)=O)CCCC1 [Example 147, 5-(2-((1-carbamoylcyclopentyl)amino)-2-oxoacetyl)-N-(3,4-difluorophenyl)-1,2,4-trimethyl-1H-pyrrole-3-carboxamide] | > 30 | < 0.05
19 | Cc1cc(NC(=O)c2cc(C(=O)C(=O)NC[C@@H](O)CO)n3c2CCCC3)ccc1F [Example 415, (R)-3-(2-((2,3-dihydroxypropyl)amino)-2-oxoacetyl)-N-(4-fluoro-3-methylphenyl)-5,6,7,8-tetrahydroindolizine-1-carboxamide] | > 30 | > 1
20 | CCNC(=O)N1CCC(C)(NC(=O)C(=O)c2c(C)c(C(=O)Nc3ccc(F)c(C)c3)c(C)n2C)CC1 [Example 614, N-ethyl-4-(2-(4-((4-fluoro-3-methylphenyl)carbamoyl)-1,3,5-trimethyl-1H-pyrrol-2-yl)-2-oxoacetamido)-4-methylpiperidine-1-carboxamide] | > 30 | < 0.05
21 | CC(=O)N[C@H]1C[C@H](NC(=O)C(=O)c2c(C)c(C(=O)Nc3ccc(F)c(C)c3)c(C)n2C)C1 [Example 670, 5-(2-(((1r,3r)-3-acetamidocyclobutyl)amino)-2-oxoacetyl)-N-(4-fluoro-3-methylphenyl)-1,2,4-trimethyl-1H-pyrrole-3-carboxamide] | > 30 | < 0.05
22 | Cc1cc(NC(=O)c2c(Cl)c(C(=O)C(=O)NC(C)(C)C(F)(F)F)n3c2CCCC3)cnc1F [Example 730, 2-chloro-N-(6-fluoro-5-methylpyridin-3-yl)-3-(2-oxo-2-((1,1,1-trifluoro-2-methylpropan-2-yl)amino)acetyl)-5,6,7,8-tetrahydroindolizine-1-carboxamide] | > 30 | 0.05 to 0.499
23 | Cc1cc(NC(=O)c2c(Cl)c(C(=O)C(=O)N[C@H]3COC[C@@H]3O)n3c2CCC3)ccc1F [Example 572, 6-chloro-N-(4-fluoro-3-methylphenyl)-5-(2-(((3S,4R)-4-hydroxytetrahydrofuran-3-yl)amino)-2-oxoacetyl)-2,3-dihydro-1H-pyrrolizine-7-carboxamide] | > 30 | < 0.05
24 | Cc1c(C(=O)Nc2ccc(F)nc2)c(C)n(C)c1C(=O)C(=O)NC(C)(C)CN1CCOCC1 [Example 350, N-(6-fluoropyridin-3-yl)-1,2,4-trimethyl-5-(2-((2-methyl-1-morpholinopropan-2-yl)amino)-2-oxoacetyl)-1H-pyrrole-3-carboxamide] | > 30 | 0.5 to 1
25 | Cc1cc(NC(=O)c2c(C)c(C(=O)C(=O)NC3(CO)CCC3)n3c2CCCC3)ccc1F [Example 442, N-(4-fluoro-3-methylphenyl)-3-(2-((1-(hydroxymethyl)cyclobutyl)amino)-2-oxoacetyl)-2-methyl-5,6,7,8-tetrahydroindolizine-1-carboxamide] | 5 to 30 | < 0.05
26 | Cc1noc([C@@H](C)NC(=O)C(=O)c2c(Cl)c(C(=O)Nc3cnc(F)c(C)c3)c3n2CCCC3)n1 [Example 522, (R)-2-chloro-N-(6-fluoro-5-methylpyridin-3-yl)-3-(2-((1-(3-methyl-1,2,4-oxadiazol-5-yl)ethyl)amino)-2-oxoacetyl)-5,6,7,8-tetrahydroindolizine-1-carboxamide] | > 30 | > 1
27 | Cc1noc(C(NC(=O)C(=O)c2c(C)c(C(=O)Nc3ccc(F)c(C)c3)c(C)n2C)C(C)C)n1 (stereo not drawn) [Example 81, N-(4-fluoro-3-methylphenyl)-1,2,4-trimethyl-5-(2-((2-methyl-1-(3-methyl-1,2,4-oxadiazol-5-yl)propyl)amino)-2-oxoacetyl)-1H-pyrrole-3-carboxamide] | > 30 | < 0.05
